Assay results as given in patent publication US12712052B2, “Method and system to identify natural products from mass spectrometry and genomics data” (priority 2021, dated 2026).
Converted amounts (≈) assume the structure as drawn. Read-outs that look alike come from different tables or passages of the source. Starred links: 1 amine or outer side, 2 acyl side, 3 side chain; linkers in the order of their positions; H or OH if unused. Positions of bridges follow the written chain, without caps; N, C: chain ends. Non-standard residues stand in square brackets, D forms with d. Residues, ends and D or L forms follow the SMILES beside them. *: point of attachment. hTyr(3S-OH,4S-OH,3'-OSO3H) = N[C@H](C(=O)O)[C@H](O)[C@@H](O)c1ccc(O)c(OS(=O)(=O)O)c1; pTerphenylCO(4''-OnC5H11) = CCCCCOc1ccc(-c2ccc(-c3ccc(C(=O)*)cc3)cc2)cc1; Orn(4R-OH,5R-OH) = O=C([C@H](C[C@@H](O)[C@@H](O)N[*:3])N[*:1])[*:2]; hTyr(3S-OH,4S-OH) = N[C@H](C(=O)O)[C@H](O)[C@@H](O)c1ccc(O)cc1; Pro(3S-OH,4S-Me) = C[C@H]1CN[C@H](C(=O)O)[C@H]1O; X1 = CCCCCOc1ccc(-c2cc(-c3ccc(C(=O)*)cc3)no2)cc1; Gln(3R-OH) = NC(=O)C[C@@H](O)[C@H](N)C(=O)O; Hyp = O=C(O)[C@@H]1C[C@@H](O)CN1

What was measured:
C. glabrata CDC #0318 = experiment: MIC against C. glabrata CDC #0318; assay type: cell-based; conditions: for MIC: Nakaseomyces glabratus, read-out: minimum inhibitory concentration (MIC)
Experimental: (§1) Direct bioactivity screening experiments of CHM-752 are performed against Candida pathogens (Table 13).

C. albicans MYA-574 = experiment: MIC against C. albicans MYA-574; assay type: cell-based, Candida albicans; conditions: for MIC: Candida albicans
Experimental: as §1

C. auris CDC #0387 = experiment: MIC against C. auris CDC #0387; assay type: cell-based, Candida auris; conditions: for MIC: Candidozyma auris, read-out: minimum inhibitory concentration (MIC)
Experimental: as §1

C. auris CDC #0381 = experiment: MIC against C. auris CDC #0381; assay type: cell-based, Candida auris; conditions: for MIC: Candidozyma auris, read-out: minimum inhibitory concentration (MIC)
Experimental: as §1

C. albicans ATCC 90028 = experiment: MIC against C. albicans ATCC 90028; assay type: cell-based, Candida albicans; conditions: for MIC: Candida albicans
Experimental: as §1

C. auris CDC #0389 = experiment: MIC against C. auris CDC #0389; assay type: cell-based, Candida auris; conditions: for MIC: Candidozyma auris, read-out: minimum inhibitory concentration (MIC)
Experimental: as §1

C. auris CDC #0383 = experiment: MIC against C. auris CDC #0383; assay type: cell-based, Candida auris; conditions: for MIC: Candidozyma auris, read-out: minimum inhibitory concentration (MIC)
Experimental: as §1

C. glabrata ATCC 36583 = experiment: MIC against C. glabrata ATCC 36583; assay type: cell-based; conditions: for MIC: Nakaseomyces glabratus, ATCC36583, read-out: minimum inhibitory concentration (MIC)
Experimental: as §1

C. glabrata CDC #0325 = experiment: MIC against C. glabrata CDC #0325; assay type: cell-based; conditions: for MIC: Nakaseomyces glabratus, read-out: minimum inhibitory concentration (MIC)
Experimental: as §1

C. glabrata CDC #0315 = experiment: MIC against C. glabrata CDC #0315; assay type: cell-based; conditions: for MIC: Nakaseomyces glabratus, read-out: minimum inhibitory concentration (MIC)
Experimental: as §1

C. auris CDC #0385 = experiment: MIC against C. auris CDC #0385; assay type: cell-based, Candida auris; conditions: for MIC: Candidozyma auris, read-out: minimum inhibitory concentration (MIC)
Experimental: as §1

C. auris CDC #0390 = experiment: MIC against C. auris CDC #0390; assay type: cell-based, Candida auris; conditions: for MIC: Candidozyma auris, read-out: minimum inhibitory concentration (MIC)
Experimental: as §1

C. glabrata CDC #0321 = experiment: MIC against C. glabrata CDC #0321; assay type: cell-based; conditions: for MIC: Nakaseomyces glabratus, read-out: minimum inhibitory concentration (MIC)
Experimental: as §1

C. auris CDC #0384 = experiment: MIC against C. auris CDC #0384; assay type: cell-based, Candida auris; conditions: for MIC: Candidozyma auris, read-out: minimum inhibitory concentration (MIC)
Experimental: as §1

[1] = MYA574, C. albicans MYA-574, read-out: minimum inhibitory concentration (MIC)
[2] = ATCC90028, C. albicans ATCC 90028, read-out: minimum inhibitory concentration (MIC)
[3] = ATCC90028, read-out: minimum inhibitory concentration (MIC)

| SMILES | MIC (C. glabrata CDC #0318; C. glabrata CDC #0318) [µg/mL] | MIC (C. albicans MYA-574; [1]) [µg/mL] | MIC (C. auris CDC #0387; C. auris CDC #0387) [µg/mL] | MIC (C. auris CDC #0381; C. auris CDC #0381) [µg/mL] | MIC (C. albicans ATCC 90028; [2]) [µg/mL] | MIC (C. auris CDC #0389; C. auris CDC #0389) [µg/mL] | MIC (C. auris CDC #0383; C. auris CDC #0383) [µg/mL] | MIC (C. glabrata ATCC 36583) [µg/mL] | MIC (C. glabrata CDC #0325; C. glabrata CDC #0325) [µg/mL] | MIC (C. glabrata CDC #0315; C. glabrata CDC #0315) [µg/mL] | MIC (C. auris CDC #0385; C. auris CDC #0385) [µg/mL] | MIC (C. auris CDC #0390; C. auris CDC #0390) [µg/mL] | MIC (C. glabrata CDC #0321; C. glabrata CDC #0321) [µg/mL] | MIC (C. auris CDC #0384; C. auris CDC #0384) [µg/mL] | MIC (C. glabrata CDC #0318) [µg/mL] | MIC (C. auris CDC #0387) [µg/mL] | MIC (C. auris CDC #0381) [µg/mL] | MIC (C. albicans ATCC 90028; [3]) [µg/mL] | MIC (C. auris CDC #0389) [µg/mL] | MIC (C. auris CDC #0383) [µg/mL] | also measured |
| --- | --- | --- | --- | --- | --- | --- | --- | --- | --- | --- | --- | --- | --- | --- | --- | --- | --- | --- | --- | --- | --- |
| CC[C@H](C)C[C@H](C)CCCCCCCCC(=O)N[C@H]1C[C@@H](O)[C@@H](NCCN)NC(=O)[C@@H]2[C@@H](O)CCN2C(=O)[C@H]([C@H](O)CCN)NC(=O)[C@H]([C@H](O)[C@@H](O)c2ccc(O)cc2)NC(=O)[C@@H]2C[C@@H](O)CN2C(=O)[C@H]([C@@H](C)O)NC1=O [CAS, Caspofungin] | 16 (≈ 14.6 µM) | 0.5 (≈ 0.457 µM) | 0.25 (≈ 0.229 µM) | 0.13 (≈ 0.119 µM) | 0.5 (≈ 0.457 µM) | 0.5 (≈ 0.457 µM) | 0.25 (≈ 0.229 µM) | 0.5 (≈ 0.457 µM) | > 16 | 16 (≈ 14.6 µM) | 0.5 (≈ 0.457 µM) | 0.5 (≈ 0.457 µM) | 4 (≈ 3.66 µM) | 16 (≈ 14.6 µM) |  |  |  |  |  |  |  |
| CCCCCOc1ccc(-c2ccc(-c3ccc(C(=O)N[C@H]4C[C@@H](O)[C@@H](O)NC(=O)[C@@H]5[C@@H](O)[C@@H](C)CN5C(=O)[C@H]([C@@H](C)O)NC(=O)[C@H]([C@H](O)[C@@H](O)c5ccc(O)cc5)NC(=O)[C@@H]5C[C@@H](O)CN5C(=O)[C@H]([C@@H](C)O)NC4=O)cc3)cc2)cc1 [ANI, Anidulafungin] ({pTerphenylCO(4''-OnC5H11)}-[Orn(4R-OH,5R-OH)]T[Hyp][hTyr(3S-OH,4S-OH)]T[Pro(3S-OH,4S-Me)]; lactam 1-C) |  |  |  |  |  |  |  |  |  |  |  |  |  |  | 4 (≈ 3.51 µM) | 0.5 (≈ 0.438 µM) | 0.25 (≈ 0.219 µM) | 0.01 (≈ 0.00877 µM) | 1 (≈ 0.877 µM) | 1 (≈ 0.877 µM) | MIC (C. glabrata CDC #0325): 4 µg/mL (≈ 3.51 µM); MIC (C. glabrata CDC #0315): 2 µg/mL (≈ 1.75 µM); MIC (C. auris CDC #0385): 1 µg/mL (≈ 0.877 µM); MIC (C. auris CDC #0390): 1 µg/mL (≈ 0.877 µM); MIC (C. glabrata CDC #0321): 2 µg/mL (≈ 1.75 µM); MIC (C. auris CDC #0384): 2 µg/mL (≈ 1.75 µM) |
| C[C@@H](c1ncncc1F)[C@](O)(Cn1cncn1)c1ccc(F)cc1F [VRC, Voriconazole] | 1 (≈ 2.86 µM) | 0.25 (≈ 0.716 µM) | 0.06 (≈ 0.172 µM) | 0.03 (≈ 0.0859 µM) | 0.01 (≈ 0.0286 µM) | 0.4 (≈ 1.15 µM) | 4 (≈ 11.5 µM) | 0.5 (≈ 1.43 µM) | 16 (≈ 45.8 µM) | 0.25 (≈ 0.716 µM) | 16 (≈ 45.8 µM) | 8 (≈ 22.9 µM) | 2 (≈ 5.73 µM) | 1 (≈ 2.86 µM) |  |  |  |  |  |  |  |
| C[C@@H]1[C@H](O)[C@@H](C)/C=C/C=C/C=C/C=C/C=C/C=C/C=C/[C@H](O[C@@H]2O[C@H](C)[C@@H](O)[C@H](N)[C@@H]2O)C[C@@H]2O[C@](O)(C[C@@H](O)C[C@@H](O)[C@H](O)CC[C@@H](O)C[C@@H](O)CC(=O)O[C@H]1C)C[C@H](O)[C@H]2C(=O)O [AMP, Amphotericin B] |  |  |  |  |  |  |  |  |  |  |  |  |  |  |  |  |  |  |  |  | minimum inhibitory concentration (MIC) (C. glabrata CDC #0318; C. glabrata CDC #0318): 0.19 µg/mL (≈ 0.206 µM); minimum inhibitory concentration (MIC) (C. albicans MYA-574; C. albicans MYA-574): 0.13 µg/mL (≈ 0.141 µM); minimum inhibitory concentration (MIC) (C. auris CDC #0387; C. auris CDC #0387): 0.75 µg/mL (≈ 0.812 µM); minimum inhibitory concentration (MIC) (C. auris CDC #0381; C. auris CDC #0381): 0.13 µg/mL (≈ 0.141 µM); minimum inhibitory concentration (MIC) (C. albicans ATCC 90028; C. albicans ATCC 90028): 0.13 µg/mL (≈ 0.141 µM); minimum inhibitory concentration (MIC) (C. auris CDC #0389; C. auris CDC #0389): 4 µg/mL (≈ 4.33 µM); minimum inhibitory concentration (MIC) (C. auris CDC #0383; C. auris CDC #0383): 0.38 µg/mL (≈ 0.411 µM); minimum inhibitory concentration (MIC) (C. glabrata ATCC 36583): 0.13 µg/mL (≈ 0.141 µM); minimum inhibitory concentration (MIC) (C. glabrata CDC #0325; C. glabrata CDC #0325): 0.25 µg/mL (≈ 0.271 µM); minimum inhibitory concentration (MIC) (C. glabrata CDC #0315; C. glabrata CDC #0315): 0.38 µg/mL (≈ 0.411 µM); minimum inhibitory concentration (MIC) (C. auris CDC #0385; C. auris CDC #0385): 0.5 µg/mL (≈ 0.541 µM); minimum inhibitory concentration (MIC) (C. auris CDC #0390; C. auris CDC #0390): 4 µg/mL (≈ 4.33 µM); minimum inhibitory concentration (MIC) (C. glabrata CDC #0321; C. glabrata CDC #0321): 0.09 µg/mL (≈ 0.0974 µM); minimum inhibitory concentration (MIC) (C. auris CDC #0384; C. auris CDC #0384): 0.5 µg/mL (≈ 0.541 µM) |
| CCCCCOc1ccc(-c2cc(-c3ccc(C(=O)N[C@H]4C[C@@H](O)[C@@H](O)NC(=O)[C@@H]5[C@@H](O)[C@@H](C)CN5C(=O)[C@H]([C@H](O)CC(N)=O)NC(=O)[C@H]([C@H](O)[C@@H](O)c5ccc(O)c(OS(=O)(=O)O)c5)NC(=O)[C@@H]5C[C@@H](O)CN5C(=O)[C@H]([C@@H](C)O)NC4=O)cc3)no2)cc1 [MF, Micafungin] (X1-[Orn(4R-OH,5R-OH)]T[Hyp][hTyr(3S-OH,4S-OH,3'-OSO3H)][Gln(3R-OH)][Pro(3S-OH,4S-Me)]; lactam 1-C) |  |  |  |  |  |  |  |  |  |  |  |  |  |  | 4 (≈ 3.15 µM) | 0.5 (≈ 0.394 µM) | 0.13 (≈ 0.102 µM) | 0.02 (≈ 0.0157 µM) | 0.25 (≈ 0.197 µM) | 1 (≈ 0.787 µM) | MIC (C. albicans MYA-574; MYA574, read-out: minimum inhibitory concentration (MIC)): 0.06 µg/mL (≈ 0.0472 µM); MIC (C. glabrata CDC #0325): 4 µg/mL (≈ 3.15 µM); MIC (C. glabrata CDC #0315): 4 µg/mL (≈ 3.15 µM); MIC (C. auris CDC #0385): 0.5 µg/mL (≈ 0.394 µM); MIC (C. auris CDC #0390): 0.25 µg/mL (≈ 0.197 µM); MIC (C. glabrata CDC #0321): 1 µg/mL (≈ 0.787 µM); MIC (C. auris CDC #0384): 2 µg/mL (≈ 1.57 µM) |
| OC(Cn1cncn1)(Cn1cncn1)c1ccc(F)cc1F [FLC, Fluconazole] | 32 (≈ 104 µM) | 64 (≈ 209 µM) | 8 (≈ 26.1 µM) | 4 (≈ 13.1 µM) | 0.25 (≈ 0.816 µM) | 256 (≈ 836 µM) | 128 (≈ 418 µM) | 8 (≈ 26.1 µM) | 128 (≈ 418 µM) | 4 (≈ 13.1 µM) | > 256 | > 256 | 64 (≈ 209 µM) | 128 (≈ 418 µM) |  |  |  |  |  |  |  |
